Results published in patent US8568763B2, “Compositions and coatings for delivery of therapeutic agents” (The University of Tennessee Research Foundation, priority 2004, dated 2013).

Legend:
in vivo = conditions: pig
Experimental: Preimplantation and postexplantation grafts, blood and tissues were sent to the HPLC Drug Monitoring Laboratory at the University of Texas Medical School at Houston, (6431 Fannin, Suite 6.233, Houston Tex. 77030) for rapamycin level quantification. Analyses were performed using HPLC/UV assays developed by Dr Kimberly L. Napoli, the director of the laboratory (Napoli et al., “Distribution of Sirolimus in Rat Tissue,” Clin. Biochem. 30:135-42 (1997), which is hereby incorporated by reference in its entirety). Whole blood was collected on the first three postoperative days and at euthanasia to quantitate systemic exposure to rapamycin. To confirm elution of rapamycin from the ePTFE and deposition of drug in the native arterial wall, explanted grafts and adjacent iliac artery were snap frozen in liquid nitrogen. The tissues were packaged on dry ice and sent for rapamycin quantification. The kinetics of elution were extrapolated by sacrificing nine animals (n=3 per time point) on postoperative day 7, 14 and 28. These animals were separate from the twenty-two animals used to evaluate for changes in neointimal hyperplasia.
Similar drug levels were detected despite sterilization. Similarly, the rapamycin fraction was detected 18 minutes after instilling the sample onto the HPLC column irrespective of sterilization. […] Levels decreased from 1000 μg preimplatation to 26.7 μg at one week post explantation. Drug (2.9 μg/gm) was detected in the adjacent arterial wall on postoperative day 7 and persisted until euthanasia.

[1] = 90 days, rapamycin-eluting stents, Carter et al; cited from earlier work
[2] = blood of patients prophylaxed against kidney transplant rejection; cited from earlier work

CO[C@H]1C[C@@H]2CC[C@@H](C)[C@@](O)(O2)C(=O)C(=O)N2CCCC[C@H]2C(=O)O[C@H]([C@H](C)C[C@@H]2CC[C@@H](O)[C@H](OC)C2)CC(=O)[C@H](C)/C=C(\C)[C@@H](O)[C@@H](OC)C(=O)[C@H](C)C[C@H](C)/C=C/C=C/C=C/1C [Rapamycin, rapamycin]
concentration at 1 day (in vivo; mongrel): 9.3 ± 0.2 ng/mL | concentration at 2 day (in vivo; mongrel): 2 ± 0.1 ng/mL | concentration at 3 day (in vivo; mongrel): 1.9 ± 0.2 ng/mL | Rapamycin level in artery (in vivo; mongrel, 7 day): 2.9 ± 0.8 μg/gm | Rapamycin level in graft (in vivo; mongrel, 14 day): 12.8 ± 5.0 µg | Rapamycin level in graft (in vivo; mongrel, 28 day): 0.005 ± 0.001 µg | Detection of rapamycin in blood (in vivo): not detectable | Elution of rapamycin off grafts (in vivo): majority of rapamycin eluted off grafts by one week | concentration at 7 day (in vivo): 2900 ng/g | concentration at 28 day (in vivo): 25 ng/g | Rapamycin in the arterial wall [1]: 0.32 ng/mg | current therapeutic rapamycin level [2]: 8 to 17 ng/mL
